Some results are limits rather than exact numbers.

Data set [1] has as its system PAI-1. In words: PAI-1 ELISA: TGFβ2 effect on PAI-1 levels in GTM-3 cell supernatants. Particulars: GTM-3 cells. The data set is classed as cell-based, human. As to the method:
PAI-1 mediated effects may contribute to the previously observed TGFβ2-mediated accumulation of extracellular matrix materials in various tissues, including TM tissues. […] TGFβ2-treatment results in both concentration-dependent and time-dependent accumulation of PAI-1 in TM cell supernatants (FIGS. 1 and 2). PAI-1 levels increase gradually in response to TGFβ2, reaching a constant level at approximately 24 h post-treatment.
(§1) Human TM cell culture: Human TM cells were isolated from post-mortem human donor tissue, characterized, and cultured as previously described. Generation and characterization of the transformed (GTM-3) cell line was also as previously described (Pang et al., Preliminary characterization of a transformed cell strain derived from human trabecular meshwork., Curr. Eye Res., Vol. 13:51-63, 1994.)
(§2) PAI-1 ELISA: 24-well plates of TM cell cultures were serum-deprived for 24 h followed by an additional 24 h (or as indicated) incubation with TGFβ2 in a serum-free medium. Aliquots of supernatants from the treated cultures were quantified for secreted PAI-1 content by means of human PAI-1 ELISA kit (American Diagnostica).
A general note: ELISA stands for enzyme-linked immunosorbent assay.

Data set [2] concerns human TM cells (GTM-3, GTM730). In words: TM cell adhesion to vitronectin substrate (InnoCyte ECM Cell Adhesion Assay). Particulars: TGFβ2 5 ng/mL, 2 hr, GTM-3 and GTM730 cells. The data set is classed as cell-based. As to the method:
as §1
TM cell adhesion: TM cell adhesion was determined by means of InnoCyte ECM Cell Adhesion Assay (Calbiochem). TM cells (20,000/well; serum-free medium) were plated onto a vitronectin-coated 96-well plate. Test agents were then added, followed by incubation in a cell culture incubator for the times indicated. Non-adherent cells were then removed by decantation and gentle wash of the wells with PBS. Relative cell attachment was determined by means of fluorescent dye (calcein-AM) uptake.

The conditions of data set [3]: cited from earlier work.
Data set [4] has as its system PAI-1. In words: PAI-1 ELISA: effect on TGFβ2-induced total PAI-1 protein in HTM cell supernatants. The settings on record: TGFβ2 5 ng/mL, 24 h. The data set is classed as cell-based, human. As to the method:
FIGS. 9-11 present graphs showing the effect of cilostazol, 3,4-dehydro cilostazol, and cilostamide on TGFβ2-induced (5 ng/mL; 24 h) total PAI-1 protein in supernatants from human trabecular meshwork (HTM) cell lines. Cilostazol was tested against three different HTM cell lines (GTM, NTM470-05, and GTM191-04).
as §1, §2

Data set [5] concerns intraocular pressure (IOP). In words: Ad.TGFβ2-induced ocular hypertension in mice, topical ocular administration. Type of data set: in vivo. Particulars: conscious mice, rebound tonometer. As for the experimental part: FIGS. 12a-12b are graphs showing the effect of topical ocular administration of various concentrations of cilostazol compared to control on Ad.TGFβ2-induced ocular hypertension in mice. Ad.TGFβ2 viral vector was injected on Day 0. Dosing with Cilostazol or vehicle was performed on the indicated days (denoted by horizontal bars). Intraocular pressure (IOP) was monitored in conscious mice using a rebound tonometer.

Data set [6] has as its system retinal ganglion cells. The settings on record: post-axotomy; cited from earlier work.
Data set [7] has as its system optic nerve head and retina. The settings on record: in vivo; cited from earlier work.
The subject of data set [8] is PAI-1. The settings on record: non-ocular tissues of rats; cited from earlier work.

Take “TGFβ2: cytokine transforming growth factor β2”: the “time to constant PAI-1 level post-treatment” value in data set [1] (TGFβ2 5 ng/mL) is given as “approximately 24 h”. Besides, in data set [1] (concentration- and time-dependent), the “PAI-1 content in trabecular meshwork cell cultures” value is listed as “increases the PAI-1 content”. The “effect on TM cell adhesion compared to controls” value in data set [2] is listed as “did not experience measurable loss of adhesion”.

With `O=c1ccc2cc(OCCCCc3nnnn3C3CCCCC3)ccc2[nH]1` [3,4-dehydro cilostazol, 3,4-dehydro-cilostazol], the “share of total activity attributed to cilostazol” value in data set [3] (may account for) is listed as not below 50%. For the same compound, the “activity relative to cilostazol” value in data set [3] (reportedly) is 4-7 fold. Further, the “effect on TGFβ2-induced total PAI-1 protein in supernatants” value (shortened to “effect … in supernatants”) in data set [4] (GTM-3 HTM cells, FIGS. 10-11) was “dose-dependent inhibitory effect”.

Consider `O=C1CCc2cc(OCCCCc3nnnn3C3CCCCC3)ccc2N1` [cilostazol, Cilostazol], for which the “IOP-lowering effect relative to control (Maxidex vehicle)” value in data set [5] (0.3% cilostazol formulation) and in data set [5] (1.0% cilostazol formulation) was “substantial IOP-lowering effects” in each case. In addition, the “survival of retinal ganglion cells” value in data set [6] is given as “increase the survival of retinal ganglion cells”. Further, the “blood flow to the optic nerve head and retina” value in data set [7] is recorded as “enhance blood flow”. Besides, the “TGFβ2 and PAI-1 protein expression and PAI-1 activity” value in data set [8] was “suppresses”. Also, the “effect … in supernatants” value in data set [4] (three HTM cell lines (GTM, NTM470-05, GTM191-04), FIGS. 9a-9c) was “dose-dependent inhibitory effect”.

Turning to `CN(C(=O)CCCOc1ccc2[nH]c(=O)ccc2c1)C1CCCCC1` [cilostamide, Cilostamide], the “effect … in supernatants” value in data set [4] (GTM-3 HTM cells, FIGS. 10-11) is listed as “dose-dependent inhibitory effect”.

Source of the values: patent publication US20100158897A1, “PAI-1 MODULATORS FOR THE TREATMENT OF OCULAR DISORDERS” (ALCON RESEARCH, LTD., priority 2006, published 2010).
